From US6355799B1, “Substituted benzene compounds, process for their preparation, and herbicidal and defoliant compositions containing them” (ISK Americas Incorporated, priority 1997, dated 2002)

Assays:
Assay type in all cases: in vivo
[1] = system: large crabgrass (Digitaria sanguinalis, DIGSA); test: Pre-emerge test, greenhouse herbicide activity screening
How it was run: (§1)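 Applied at 15–1000 g ai/ha from acetone in 187 l/ha spray volume. Post-emergence applications included 0.25% v/v non-ionic surfactant and reached plants sown 8–21 days before. Pre-emergence applications were incorporated by surface watering. Efficacy or crop damage was rated on a 0–100 scale after 14 days.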

[2] = system: johnsongrass (Sorghum halepense, SORHA); test: as above
How it was run: as §1

[3] = system: sicklepod (Cassia obtusifolia, CASOB); test: as above
How it was run: as §1

[4] = system: green foxtail (Setaria viridis, SETVI); test: as above
How it was run: as §1

[5] = system: lambsquarters (Chenopodium album, CHEAL); test: as above
How it was run: as §1

[6] = system: barnyardgrass (Echinochloa crus-galli, ECHCG); test: as above
How it was run: as §1

[7] = system: velvetleaf (Abutilon theophrasti, ABUTH); test: as above
How it was run: as §1

[8] = system: common ragweed (Ambrosia artemisizfolia L., AMBEL); test: as above
How it was run: as §1

[9] = system: ivyleaf morningglory (Ipomoea hederacea, IPOHE); test: as above
How it was run: as §1

[10] = system: redroot pigweed (Amaranthus retroflexus, AMARE); test: as above
How it was run: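 Herbicidal damage is scored 0 (none) to 100 (complete plant death) two weeks after a simulated field spray. Rates span 15–1000 g ai/ha, delivered in acetone at 187 l/ha. For post-emergence treatments, plants have 2–3 leaves and the spray carries 0.25% v/v non-ionic surfactant.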

[11] = system: field corn (Zea mays L., var. Dekalb 535, CORN); test: Pre-emerge test, crop safety
How it was run: (§2)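 Compounds in acetone were track-sprayed at 187 l/ha, 15–1000 g ai/ha, onto sandy loam pots. Pre-emerge seeds were sown one day before spraying, with surface watering afterwards. Post-emerge plants were at the 2–3 leaf stage and sprayed with 0.25% v/v non-ionic surfactant. Injury was rated 0–100 at 14 days.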

[12] = system: upland rice (Oryza sp., var. Tebonnet, RICE); test: Pre-emerge test, crop safety
How it was run: as §2

[13] = system: field corn (Zea mays L., var. Dekalb 535, CORN); test: Post-emerge test, crop safety; details: post-emerge; for phytotoxicity rating CORN (crop damage): 14 days after application, rating scale 0-100; for Post-emerge Herbicidal Activity CORN: crop damage rating 0-100 at 14 days after application
How it was run: as §1

[14] = system: upland rice (Oryza sp., var. Tebonnet, RICE); test: Post-emerge test, crop safety; details: post-emerge; for phytotoxicity rating RICE (crop damage): 14 days after application, rating scale 0-100; for Post-emerge Herbicidal Activity RICE: crop damage rating 0-100 at 14 days after application
How it was run: as §1

[15] = system: large crabgrass (Digitaria sanguinalis, DIGSA); test: Post-emerge test, greenhouse herbicide activity screening; details: post-emerge; for phytotoxicity rating DIGSA: 14 days after application, rating scale 0-100; for Post-emerge Herbicidal Activity DIGSA: phytotoxicity rating 0-100 at 14 days after application
How it was run: (§3)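 Fourteen days after spraying, crop and weed injury was graded visually from 0, no effect, to 100, every plant dead. Test substances were dissolved in acetone and applied at 15–1000 g ai/ha with a flat-fan nozzle. Application was either pre-emergence, one day after sowing, or post-emergence at the 2–3 leaf stage.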

[16] = system: johnsongrass (Sorghum halepense, SORHA); test: as above; details: post-emerge; for phytotoxicity rating SORHA: 14 days after application, rating scale 0-100; for Post-emerge Herbicidal Activity SORHA: phytotoxicity rating 0-100 at 14 days after application
How it was run: as §3

[17] = system: sicklepod (Cassia obtusifolia, CASOB); test: as above; details: post-emerge; for phytotoxicity rating CASOB: 14 days after application, rating scale 0-100; for Post-emerge Herbicidal Activity CASOB: phytotoxicity rating 0-100 at 14 days after application
How it was run: as §3

[18] = system: green foxtail (Setaria viridis, SETVI); test: as above; details: post-emerge; for phytotoxicity rating SETVI: 14 days after application, rating scale 0-100; for Post-emerge Herbicidal Activity SETVI: phytotoxicity rating 0-100 at 14 days after application
How it was run: as §3

[19] = system: lambsquarters (Chenopodium album, CHEAL); test: as above; details: post-emerge; for phytotoxicity rating CHEAL: 14 days after application, rating scale 0-100; for Post-emerge Herbicidal Activity CHEAL: phytotoxicity rating 0-100 at 14 days after application
How it was run: as §3

[20] = system: barnyardgrass (Echinochloa crus-galli, ECHCG); test: as above; details: post-emerge; for phytotoxicity rating ECHCG: 14 days after application, rating scale 0-100; for Post-emerge Herbicidal Activity ECHCG: phytotoxicity rating 0-100 at 14 days after application
How it was run: as §3

[21] = system: redroot pigweed (Amaranthus retroflexus, AMARE); test: as above; details: post-emerge; for phytotoxicity rating AMARE: 14 days after application; for Post-emerge Herbicidal Activity AMARE: phytotoxicity rating 0-100 at 14 days after application
How it was run: as §3

[22] = system: velvetleaf (Abutilon theophrasti, ABUTH); test: as above; details: post-emerge; for phytotoxicity rating ABUTH: 14 days after application, rating scale 0-100; for Post-emerge Herbicidal Activity ABUTH: phytotoxicity rating 0-100 at 14 days after application
How it was run: as §3

[23] = system: ivyleaf morningglory (Ipomoea hederacea, IPOHE); test: as above; details: post-emerge; for phytotoxicity rating IPOHE: 14 days after application, rating scale 0-100; for Post-emerge Herbicidal Activity IPOHE: phytotoxicity rating 0-100 at 14 days after application
How it was run: as §3

[24] = 63 g ai/ha, phytotoxicity rating 0-100, 14 days after application
[25] = 250 g ai/ha, phytotoxicity rating 0-100, 14 days after application
[26] = 63 g ai/ha, crop damage rating 0-100, 14 days after application
[27] = 250 g ai/ha, crop damage rating 0-100, 14 days after application
[28] = pre-emerge, rate 63 g ai/ha, phytotoxicity rating 0-100 at 14 days after application
[29] = pre-emerge, rate 250 g ai/ha, phytotoxicity rating 0-100 at 14 days after application
[30] = crop damage, pre-emerge, rate 63 g ai/ha, phytotoxicity rating 0-100 at 14 days after application
[31] = crop damage, pre-emerge, rate 250 g ai/ha, phytotoxicity rating 0-100 at 14 days after application

Compound: Cn1c(C(F)(F)F)cc(=O)n(-c2ccc(Cl)cc2NC(=O)Oc2ccccc2)c1=O [4-50]
- Pre-emerge Herbicidal Activity DIGSA [1, 24]: 0
- Pre-emerge Herbicidal Activity DIGSA [1, 25]: 30
- Pre-emerge Herbicidal Activity SORHA [2, 24]: 0
- Pre-emerge Herbicidal Activity SORHA [2, 25]: 0
- Pre-emerge Herbicidal Activity CASOB [3, 24]: 0
- Pre-emerge Herbicidal Activity CASOB [3, 25]: 0
- Pre-emerge Herbicidal Activity SETVI [4, 24]: 0
- Pre-emerge Herbicidal Activity SETVI [4, 25]: 10
- Pre-emerge Herbicidal Activity CHEAL [5, 24]: 40
- Pre-emerge Herbicidal Activity CHEAL [5, 25]: 100
- Pre-emerge Herbicidal Activity ECHCG [6, 24]: 0
- Pre-emerge Herbicidal Activity ECHCG [6, 25]: 0
- Pre-emerge Herbicidal Activity ABUTH [7, 24]: 20
- Pre-emerge Herbicidal Activity ABUTH [7, 25]: 100
- Pre-emerge Herbicidal Activity AMBEL [8, 24]: 0
- Pre-emerge Herbicidal Activity AMBEL [8, 25]: 0
- Pre-emerge Herbicidal Activity IPOHE [9, 24]: 0
- Pre-emerge Herbicidal Activity IPOHE [9, 25]: 30
- Pre-emerge Herbicidal Activity AMARE [10, 24]: 20
- Pre-emerge Herbicidal Activity AMARE [10, 25]: 100
- Pre-emerge Herbicidal Activity CORN [11, 26]: 0
- Pre-emerge Herbicidal Activity CORN [11, 27]: 0
- Pre-emerge Herbicidal Activity RICE [12, 26]: 0
- Pre-emerge Herbicidal Activity RICE [12, 27]: 10
- phytotoxicity rating CORN (crop damage) ([13]; 63 g ai/ha): 0
- phytotoxicity rating CORN (crop damage) ([13]; 250 g ai/ha): 10
- phytotoxicity rating RICE (crop damage) ([14]; 63 g ai/ha): 0
- phytotoxicity rating RICE (crop damage) ([14]; 250 g ai/ha): 0
- phytotoxicity rating DIGSA ([15]; 63 g ai/ha): 0
- phytotoxicity rating DIGSA ([15]; 250 g ai/ha): 0
- phytotoxicity rating SORHA ([16]; 63 g ai/ha): 0
- phytotoxicity rating SORHA ([16]; 250 g ai/ha): 0
- phytotoxicity rating CASOB ([17]; 63 g ai/ha): 0
- phytotoxicity rating CASOB ([17]; 250 g ai/ha): 20
- phytotoxicity rating SETVI ([18]; 63 g ai/ha): 0
- phytotoxicity rating SETVI ([18]; 250 g ai/ha): 0
- phytotoxicity rating CHEAL ([19]; 63 g ai/ha): 40
- phytotoxicity rating CHEAL ([19]; 250 g ai/ha): 95
- phytotoxicity rating ECHCG ([20]; 63 g ai/ha): 0
- phytotoxicity rating ECHCG ([20]; 250 g ai/ha): 0
- phytotoxicity rating AMARE ([21]; 63 g ai/ha, rating scale 0-100 (0 no damage, 100 complete death)): 30
- phytotoxicity rating AMARE ([21]; 250 g ai/ha, rating scale 0-100): 70
- phytotoxicity rating ABUTH ([22]; 63 g ai/ha): 60
- phytotoxicity rating ABUTH ([22]; 250 g ai/ha): 95
- phytotoxicity rating IPOHE ([23]; 63 g ai/ha): 30
- phytotoxicity rating IPOHE ([23]; 250 g ai/ha): 90

Compound: COc1c(Cl)cc(F)c(-n2ncc(C(F)(F)F)c(C)c2=O)c1NC(=O)c1ccc2ccccc2c1 [11-13]
- Pre-emerge Herbicidal Activity DIGSA [1, 28]: 60
- Pre-emerge Herbicidal Activity DIGSA [1, 29]: 100
- Pre-emerge Herbicidal Activity SORHA [2, 28]: 0
- Pre-emerge Herbicidal Activity SORHA [2, 29]: 40
- Pre-emerge Herbicidal Activity CASOB [3, 28]: 0
- Pre-emerge Herbicidal Activity CASOB [3, 29]: 85
- Pre-emerge Herbicidal Activity SETVI [4, 28]: 70
- Pre-emerge Herbicidal Activity SETVI [4, 29]: 100
- Pre-emerge Herbicidal Activity CHEAL [5, 28]: 100
- Pre-emerge Herbicidal Activity CHEAL [5, 29]: 100
- Pre-emerge Herbicidal Activity ECHCG [6, 28]: 30
- Pre-emerge Herbicidal Activity ECHCG [6, 29]: 80
- Pre-emerge Herbicidal Activity ABUTH [7, 28]: 95
- Pre-emerge Herbicidal Activity ABUTH [7, 29]: 100
- Pre-emerge Herbicidal Activity AMBEL [8, 28]: 30
- Pre-emerge Herbicidal Activity AMBEL [8, 29]: 60
- Pre-emerge Herbicidal Activity IPOHE [9, 28]: 65
- Pre-emerge Herbicidal Activity IPOHE [9, 29]: 80
- Pre-emerge Herbicidal Activity AMARE [10, 28]: 100
- Pre-emerge Herbicidal Activity AMARE [10, 29]: 10
- Pre-emerge Herbicidal Activity CORN [11, 30]: 0
- Pre-emerge Herbicidal Activity CORN [11, 31]: 0
- Pre-emerge Herbicidal Activity RICE [12, 30]: 0
- Pre-emerge Herbicidal Activity RICE [12, 31]: 15
- Post-emerge Herbicidal Activity CORN ([13]; 63 g ai/ha): 45
- Post-emerge Herbicidal Activity CORN ([13]; 250 g ai/ha): 45
- Post-emerge Herbicidal Activity RICE ([14]; 63 g ai/ha): 45
- Post-emerge Herbicidal Activity RICE ([14]; 250 g ai/ha): 65
- Post-emerge Herbicidal Activity DIGSA ([15]; 63 g ai/ha): 40
- Post-emerge Herbicidal Activity DIGSA ([15]; 250 g ai/ha): 60
- Post-emerge Herbicidal Activity SORHA ([16]; 63 g ai/ha): 0
- Post-emerge Herbicidal Activity SORHA ([16]; 250 g ai/ha): 15
- Post-emerge Herbicidal Activity CASOB ([17]; 63 g ai/ha): 85
- Post-emerge Herbicidal Activity CASOB ([17]; 250 g ai/ha): 85
- Post-emerge Herbicidal Activity SETVI ([18]; 63 g ai/ha): 55
- Post-emerge Herbicidal Activity SETVI ([18]; 250 g ai/ha): 40
- Post-emerge Herbicidal Activity CHEAL ([19]; 63 g ai/ha): 100
- Post-emerge Herbicidal Activity CHEAL ([19]; 250 g ai/ha): 100
- Post-emerge Herbicidal Activity ECHCG ([20]; 63 g ai/ha): 65
- Post-emerge Herbicidal Activity ECHCG ([20]; 250 g ai/ha): 55
- Post-emerge Herbicidal Activity AMARE ([21]; 63 g ai/ha): 100
- Post-emerge Herbicidal Activity AMARE ([21]; 250 g ai/ha): 100
- Post-emerge Herbicidal Activity ABUTH ([22]; 63 g ai/ha): 95
- Post-emerge Herbicidal Activity ABUTH ([22]; 250 g ai/ha): 100
- Post-emerge Herbicidal Activity IPOHE ([23]; 63 g ai/ha): 98
- Post-emerge Herbicidal Activity IPOHE ([23]; 250 g ai/ha): 98
